Results published in article PMC5461819 (Peptides, 2015).
Where “and” joins values, the source holds several entries; their conditions need not be identical. Identical values can stand only once. Entries after “also recorded” stand apart in the source; their conditions may differ. Like-named read-outs stand apart in the source and are kept apart here.

Legend:
human BRS-3 [1] = target: T1, human BRS-3 (Homo sapiens, UniProt P32247); assay: [3H]Inositol phosphate generation; type: cell-based
T1 sequence (P32247 1-399): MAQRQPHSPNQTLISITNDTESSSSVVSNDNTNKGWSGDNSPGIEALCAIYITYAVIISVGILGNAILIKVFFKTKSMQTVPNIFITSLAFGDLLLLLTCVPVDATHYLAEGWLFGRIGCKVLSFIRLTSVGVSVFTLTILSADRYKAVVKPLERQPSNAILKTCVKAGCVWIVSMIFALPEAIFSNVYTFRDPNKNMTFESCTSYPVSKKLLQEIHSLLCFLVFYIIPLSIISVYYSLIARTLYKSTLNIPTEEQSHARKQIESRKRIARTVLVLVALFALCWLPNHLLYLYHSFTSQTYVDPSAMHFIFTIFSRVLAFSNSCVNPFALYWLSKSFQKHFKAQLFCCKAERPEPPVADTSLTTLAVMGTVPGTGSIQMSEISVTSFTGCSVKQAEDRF

rat NMBR [2] = target: T2, rat NMBR (Rattus norvegicus, UniProt P24053); assay: [3H]Inositol phosphate generation, rNMBR/BALB cells; type: cell-based
T2 sequence (P24053 1-390): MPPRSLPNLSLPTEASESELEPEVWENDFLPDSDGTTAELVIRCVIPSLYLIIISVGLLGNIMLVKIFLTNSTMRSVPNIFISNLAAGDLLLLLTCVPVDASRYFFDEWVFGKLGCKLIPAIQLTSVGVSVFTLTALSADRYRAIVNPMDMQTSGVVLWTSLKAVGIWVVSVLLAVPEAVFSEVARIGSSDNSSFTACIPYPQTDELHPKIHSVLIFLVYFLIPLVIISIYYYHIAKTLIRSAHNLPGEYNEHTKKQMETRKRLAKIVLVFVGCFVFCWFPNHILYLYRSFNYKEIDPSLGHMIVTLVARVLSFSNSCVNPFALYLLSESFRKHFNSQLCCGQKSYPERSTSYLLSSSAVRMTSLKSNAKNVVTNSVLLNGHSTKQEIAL

rat GRPR [3] = target: T3, rat GRPR (Rattus norvegicus, UniProt P52500); assay: [3H]Inositol phosphate generation, rGRPR/AR42J cells; type: cell-based
rat BRS-3 = target: T4, rat BRS-3 (Rattus norvegicus, UniProt Q8K418); assay: [3H]Inositol phosphate generation, rBRS-3/BALB cells; type: cell-based
T4 sequence (Q8K418 1-399): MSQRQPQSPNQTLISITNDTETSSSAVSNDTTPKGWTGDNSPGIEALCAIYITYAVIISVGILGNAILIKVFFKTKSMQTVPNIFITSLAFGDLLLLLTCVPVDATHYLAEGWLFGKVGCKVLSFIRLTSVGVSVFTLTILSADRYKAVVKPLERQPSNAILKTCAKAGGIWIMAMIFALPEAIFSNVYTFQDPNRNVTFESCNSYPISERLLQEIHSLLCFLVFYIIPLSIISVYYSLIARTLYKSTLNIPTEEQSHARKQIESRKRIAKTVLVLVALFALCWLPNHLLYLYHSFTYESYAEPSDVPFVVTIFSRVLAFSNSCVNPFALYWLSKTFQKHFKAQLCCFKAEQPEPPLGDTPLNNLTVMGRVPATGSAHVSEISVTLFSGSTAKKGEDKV

human NMBR [4] = target: T5, human NMBR (Homo sapiens, UniProt P28336); assay: [3H]Inositol phosphate generation, hNMBR/BALB cells; type: cell-based
mouse GRPR [5] = target: T6, mouse GRPR (Mus musculus, UniProt P21729); assay: [3H]Inositol phosphate generation, mGRPR/BALB cells; type: cell-based
mouse NMBR [6] = target: T7, mouse NMBR (Mus musculus, UniProt O54799); assay: [3H]Inositol phosphate generation, mNMBR/BALB cells; type: cell-based
T7 sequence (O54799 1-390): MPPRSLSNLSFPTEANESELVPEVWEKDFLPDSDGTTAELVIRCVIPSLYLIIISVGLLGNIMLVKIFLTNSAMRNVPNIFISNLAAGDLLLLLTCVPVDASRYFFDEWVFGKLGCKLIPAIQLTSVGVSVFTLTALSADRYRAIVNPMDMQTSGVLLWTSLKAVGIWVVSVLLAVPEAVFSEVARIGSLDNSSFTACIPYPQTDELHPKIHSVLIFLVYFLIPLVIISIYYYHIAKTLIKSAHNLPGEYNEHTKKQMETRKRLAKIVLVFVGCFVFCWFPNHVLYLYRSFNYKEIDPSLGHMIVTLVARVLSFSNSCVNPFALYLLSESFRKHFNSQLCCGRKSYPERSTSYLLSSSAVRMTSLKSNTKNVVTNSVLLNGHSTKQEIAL

human BRS-3 [7] = target: T1, human BRS-3; assay: Binding studies, inhibition of 125I-[D-Tyr6,β-Ala11,Phe13,Nle14]Bn-
rat GRPR [8] = target: T3, rat GRPR; assay: Binding studies, rGRPR/AR42J cells
human GRPR [9] = target: T8, human GRPR (Homo sapiens, UniProt P30550); assay: [3H]Inositol phosphate generation, hGRPR/BALB cells; type: cell-based
rat NMBR [10] = target: T2, rat NMBR; assay: Binding studies, rNMBR/BALB cells
human NMBR [11] = target: T5, human NMBR; assay: Binding studies, hNMBR/BALB cells
mouse GRPR [12] = target: T6, mouse GRPR; assay: Binding studies, mGRPR/BALB cells
mouse NMBR [13] = target: T7, mouse NMBR; assay: Binding studies, mNMBR/BALB cells
mouse BRS-3 = target: T9, mouse BRS-3 (Mus musculus, UniProt O54798); assay: [3H]Inositol phosphate generation, mBRS-3/BALB cells; type: cell-based
T9 sequence (O54798 1-399): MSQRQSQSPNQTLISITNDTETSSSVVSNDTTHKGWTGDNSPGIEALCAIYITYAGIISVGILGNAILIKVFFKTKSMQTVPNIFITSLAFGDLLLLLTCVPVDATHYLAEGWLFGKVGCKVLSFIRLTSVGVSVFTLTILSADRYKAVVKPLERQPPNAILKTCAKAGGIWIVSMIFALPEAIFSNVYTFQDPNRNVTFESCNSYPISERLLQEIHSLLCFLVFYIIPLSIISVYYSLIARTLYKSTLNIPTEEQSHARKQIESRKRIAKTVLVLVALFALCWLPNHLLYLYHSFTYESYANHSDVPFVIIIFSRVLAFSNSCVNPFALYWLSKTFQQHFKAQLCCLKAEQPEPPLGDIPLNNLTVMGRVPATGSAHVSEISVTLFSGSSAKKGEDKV

human GRPR [14] = target: T8, human GRPR; assay: Binding studies, hGRPR/BALB cells

T5 sequence (P28336 whole entry): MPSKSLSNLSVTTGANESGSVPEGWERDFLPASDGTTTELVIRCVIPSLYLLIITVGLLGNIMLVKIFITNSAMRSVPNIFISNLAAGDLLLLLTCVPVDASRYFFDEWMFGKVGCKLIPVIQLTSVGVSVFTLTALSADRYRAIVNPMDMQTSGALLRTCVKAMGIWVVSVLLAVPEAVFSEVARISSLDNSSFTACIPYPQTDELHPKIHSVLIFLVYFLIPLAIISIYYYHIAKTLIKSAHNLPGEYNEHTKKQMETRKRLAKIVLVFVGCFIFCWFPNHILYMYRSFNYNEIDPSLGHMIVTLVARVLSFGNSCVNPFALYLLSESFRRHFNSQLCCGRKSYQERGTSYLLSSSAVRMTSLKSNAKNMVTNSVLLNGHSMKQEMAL
T6 sequence (P21729 whole entry): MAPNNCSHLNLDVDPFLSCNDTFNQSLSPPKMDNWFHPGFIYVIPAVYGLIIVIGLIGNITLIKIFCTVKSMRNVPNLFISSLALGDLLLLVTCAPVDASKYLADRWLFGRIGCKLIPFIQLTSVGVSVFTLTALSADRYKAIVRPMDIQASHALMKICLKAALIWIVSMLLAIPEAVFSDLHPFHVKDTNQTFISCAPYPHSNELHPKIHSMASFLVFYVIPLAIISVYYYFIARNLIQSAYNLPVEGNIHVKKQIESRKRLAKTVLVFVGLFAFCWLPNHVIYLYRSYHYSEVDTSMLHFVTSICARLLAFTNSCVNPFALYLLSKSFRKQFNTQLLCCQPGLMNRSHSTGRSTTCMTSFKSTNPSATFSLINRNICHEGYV
T8 sequence (P30550 whole entry): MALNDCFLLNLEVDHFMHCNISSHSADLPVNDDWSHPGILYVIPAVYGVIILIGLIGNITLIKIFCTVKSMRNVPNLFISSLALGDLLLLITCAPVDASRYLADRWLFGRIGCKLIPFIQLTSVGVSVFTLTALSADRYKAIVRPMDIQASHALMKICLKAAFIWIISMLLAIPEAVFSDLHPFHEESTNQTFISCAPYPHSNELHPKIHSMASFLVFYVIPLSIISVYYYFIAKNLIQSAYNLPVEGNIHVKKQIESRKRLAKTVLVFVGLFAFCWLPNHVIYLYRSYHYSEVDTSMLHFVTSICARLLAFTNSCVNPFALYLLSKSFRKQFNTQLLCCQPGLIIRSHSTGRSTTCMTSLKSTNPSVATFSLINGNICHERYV
T3 sequence (P52500 whole entry): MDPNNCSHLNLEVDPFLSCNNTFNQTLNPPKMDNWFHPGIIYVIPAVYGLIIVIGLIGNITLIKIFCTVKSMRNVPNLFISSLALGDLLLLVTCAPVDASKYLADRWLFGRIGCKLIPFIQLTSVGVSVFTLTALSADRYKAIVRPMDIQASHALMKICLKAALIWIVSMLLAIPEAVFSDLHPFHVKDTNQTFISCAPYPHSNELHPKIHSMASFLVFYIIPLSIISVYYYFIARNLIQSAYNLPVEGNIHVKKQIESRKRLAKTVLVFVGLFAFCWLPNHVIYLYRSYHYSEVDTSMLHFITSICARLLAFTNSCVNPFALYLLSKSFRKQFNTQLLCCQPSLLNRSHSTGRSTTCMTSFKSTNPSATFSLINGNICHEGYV

Compound | EC50 (human BRS-3 [1]) [nM] | EC50 (rat BRS-3) [nM] | EC50 (mouse GRPR [5]) [nM] | IC50 (human BRS-3 [7]) [nM] | IC50 (rat GRPR [8]) [nM] | EC50 (human GRPR [9]) [nM] | IC50 (rat NMBR [10]) [nM] | IC50 (human NMBR [11]) [nM] | IC50 (mouse GRPR [12]) [nM] | IC50 (mouse NMBR [13]) [nM] | EC50 (mouse BRS-3) [nM] | IC50 (human GRPR [14]) [nM] | other results
O[C@@](Cc1nc(CC2(C(F)(F)F)CC2)c[nH]1)(c1ccc(-n2cccn2)cc1)C(F)(F)F [MK-5046, (2S)-1,1,1-trifluoro-2-[4-(1H-pyrazol-1-yl)phenyl]-3-(4-[[1-(trifluoromethyl)cyclopropyl]methyl]-1H-imidazol-2-yl)propan-2-ol] | 8.7 ± 0.47 | 0.23 ± 0.08 | > 3000 | 102 ± 2 | > 3000 | > 3000 | > 3000 | > 3000 | > 3000 | > 3000 | 5.24 ± 0.36 | > 3000 | IC50/ EC50 hBRS-3/BALB (human BRS-3 [1]; binding IC50 over [3H]IP EC50, hBRS-3/BALB cells, measure of receptor spareness): 11.7 and 11.72; maximal stimulated [3H]IP value (human BRS-3 [1]; hBRS-3/BALB cells, 1 μM, n=13): 70,268 ± 4,912 dpm; efficacy for activating PLC (human BRS-3 [1]; human BRS-3 cells): full efficacious; also recorded: fully efficacious; increase on activating PLC (human BRS-3 [1]; human BRS-3 containing cells): 3.8 fold; EC50 (rat NMBR [2]): > 3000 nM; EC50 (rat GRPR [3]): > 3000 nM; maximal stimulation of [3H]IP (rat BRS-3; rBRS-3/BALB cells, 1 μM, n=7): 21,812 ± 1,721 dpm; more potent in rBRS-3 than in hBRS-3 (rat BRS-3; rBRS-3 versus hBRS-3): 38 fold; more potent in rBRS-3 than in mBRS-3 (rat BRS-3; rBRS-3 versus mBRS-3): 22 fold; efficacy for activating PLC (rat BRS-3; rat BRS-3 cells): full efficacious; also recorded: fully efficacious; increase on activating PLC (rat BRS-3; rat BRS-3 containing cells): 5.8 fold; EC50 (human NMBR [4]): > 3000 nM; EC50 (mouse NMBR [6]): > 3000 nM; maximal stimulation of [3H]IP (mouse BRS-3; mBRS-3/BALB cells, 1 μM, n=3): 62,992 ± 9,298 dpm; efficacy for activating PLC (mouse BRS-3; mouse BRS-3 cells): full efficacious; also recorded: fully efficacious; increase on activating PLC (mouse BRS-3; mouse BRS-3 containing cells): 3.9 fold
CSCC[C@H](NC(=O)[C@H](Cc1ccccc1)NC(=O)[C@H](Cc1c[nH]cn1)NC(=O)CNC(=O)[C@@H](NC(=O)[C@H](C)NC(=O)[C@H](Cc1c[nH]c2ccccc12)NC(=O)[C@H](CC(C)C)NC(=O)[C@H](CC(N)=O)NC(=O)CN)[C@@H](C)O)C(N)=O [NMB, neuromedin B] | > 3000 | > 3000 | 23 ± 8 | > 3000 | 80 ± 5 | 530 ± 23 | 1.21 ± 0.15 | 0.6 ± 0.02 | 170 ± 5 | 0.6 ± 0.02 | > 3000 | 31.5 ± 2.4 | EC50 (rat NMBR [2]; EC50 Rat NMBR rNMBR/BALB, [3H]IP production, 60 min, 37°C): 1.6 nM and 1.59 nM; EC50 (rat GRPR [3]; EC50 Rat GRPR rGRPR/AR42J, [3H]IP production, 60 min, 37°C): 17 nM; EC50 (human NMBR [4]; EC50 Human NMBR hNMBR/BALB, [3H]IP production, 60 min, 37°C): 2.5 nM and 2.52 nM; EC50 (mouse NMBR [6]; EC50 Mouse NMBR mNMBR/BALB, [3H]IP production, 60 min, 37°C): 4.7 nM and 4.73 nM; lower affinity for rGRPR than for rNMBR (rat GRPR [8]; rat receptors): 66 fold
